In patent publication US20210251269A1, “Beverages Comprising Highly Soluble Steviol Glycoside Blend and Glucosylated Steviol Glycosides” (The Coca-Cola Company, priority 2018, published 2021):

Legend:
[1] = Sensory evaluation of beverages by expert panelists; format: in vivo; details: 480 ppm steviol glycosides in finished beverage; at least 5 expert panelists, blind; carbonated beverages tasted at 4° C.
Procedure: Steviol glycosides with high purity (>95%) namely Rebaudioside A, B, D, M, Glycosylated steviol glycoside (GSG) were evaluated in acidified citric buffer, a lemon lime and a cola carbonated beverage at concentration of 480 ppm in finished beverage.
The beverages were evaluated blindly by at least 5 expert panelists who work and taste steviol glycosides sweetened beverages daily. Samples were coded and randomly presented to the panelists. Panelists were instructed to eat an unsalted cracker and rinse the mouth with water before and in between samples. The maximum samples for each session was set at 5 samples to avoid fatigue. For each sample, panelists were instructed to take 3 sips, then write down their evaluation comments. Mock beverages were tasted at ambient temperature while carbonated beverages (diet lemon lime and cola) were tasted at 4° C.

[2] = Solubility at syrup stage (lemon lime and cola beverage syrup, 5.5+1); format: physicochemical
Procedure: The ingredients were dissolved in filtered water to constitute a syrup, then the final beverage was made by weighing the appropriate syrup amount and adding carbonated water using a ratio of 1-part syrup+5.5 parts carbonated water. Final beverages were filled in 300 ml glass bottles then aged for 3 days at 35° C. before they were cooled and served cold (4° C.). The control with Reb-M was made by heating water up to around 47° C. then dissolving Reb-M. After complete dissolution, the concentrated Reb-M solution was cooled down to ambient temperature before the rest of the ingredients were added.

[3] = cited from earlier work

| Compound | Panelist Rating (1 = most preferred, 6 = least preferred) [1] | solubility at syrup stage [2] [%] | aqueous solubility [3] |
| --- | --- | --- | --- |
| C=C1C[C@@]23CC[C@H]4[C@@](C)(CCC[C@@]4(C)C(=O)O[C@@H]4O[C@H](CO)[C@@H](O)[C@H](O[C@@H]5O[C@H](CO)[C@@H](O)[C@H](O)[C@H]5O)[C@H]4O[C@@H]4O[C@H](CO)[C@@H](O)[C@H](O)[C@H]4O)[C@@H]2CC[C@]1(O[C@@H]1O[C@H](CO)[C@@H](O)[C@H](O[C@@H]2O[C@H](CO)[C@@H](O)[C@H](O)[C@H]2O)[C@H]1O[C@@H]1O[C@H](CO)[C@@H](O)[C@H](O)[C@H]1O)C3 [Reb-M, Rebaudioside M] | 2 | 0.1 | – |
| C=C1C[C@@]23CC[C@H]4[C@@](C)(CCC[C@@]4(C)C(=O)O[C@@H]4O[C@H](CO)[C@@H](O)[C@H](O)[C@H]4O)[C@@H]2CC[C@]1(O[C@@H]1O[C@H](CO)[C@@H](O)[C@H](O[C@@H]2O[C@H](CO)[C@@H](O)[C@H](O)[C@H]2O)[C@H]1O[C@@H]1O[C@H](CO)[C@@H](O)[C@H](O)[C@H]1O)C3 [Rebaudioside A] | – | – | about 0.8 wt % |
